# Measured values published in patent US20240016819A1, “CANNABINOIDS FOR USE IN THE TREATMENT OF EPILEPSY” (GW RESEARCH LIMITED, priority 2020, published 2024).
# Tested on: seizures in patients with TSC
# Assay: Mean total seizures over time in TSC patients after administration of CBD (FIG. 2)
# Assay type: in vivo, human
# Settings: starting dose 5 mg/kg/day, 2 week titration period
# Procedure: Patients with TSC were administered a highly purified extract of cannabidiol (CBD) obtained from a cannabis plant described herein. Similar to Example 1, patients with a TSC diagnosis were administered a starting dose of 5 mg/kg/day CBD in addition to their baseline anti-epileptic drug (AED) regimen or placebo.
# The daily dose was increased by 5 mg/kg increments until intolerance occurred or a maximum dose of 25 mg/kg/day was achieved. The starting dose increase from 5 mg/kg/day to 10 mg/kg/day occurred 7 days after administration of the first dose of CBD. […] The titration period occurred over two weeks. For patients in need of further seizure reduction, the dosage of 20 mg/kg/day was increased up to 25 mg/kg/day after one week.
# All patients were taking at least two concomitant anti-epileptic drugs. These included clobazam; levetiracetam; topiramate; stiripentol; phenobarbital; lacsamide; valproic acid; zonisamide. The average number of concomitant antiepileptic drugs being taken was 2.7. The majority took either clobazam and/or valproic acid.
# Prior to treatment with CBD, patients recorded the number of seizures they experienced. This established the baseline levels. During the course of treatment, patients recorded the number of seizures experienced each day.
smiles,measurement,value
"C=C(C)[C@@H]1CCC(C)=C[C@H]1c1c(O)cc(CCCCC)cc1O [CBD Extract, Cannabidiol]",mean total seizures over time,starts decreasing during the titration period
